Calls of active or inactive are those of the source.
How the values were obtained:
[1] = Vero cell cytotoxicity, dose response, cytotoxicity control for M. tuberculosis growth inhibitor project, Vero cells, purified and synthesized compounds, set 4 (AID 504854); type: functional; conditions: Mycobacterium tuberculosis
[2] = HepG2 cell cytotoxicity, dose response, cytotoxicity control, set 3 (AID 504853); type: functional; conditions: Mycobacterium tuberculosis
[3] = THP-1 cell cytotoxicity, cytotoxicity control, set 4 (AID 504911); type: functional; conditions: Mycobacterium tuberculosis
[4] = Vero cell cytotoxicity, cytotoxicity control for M. tuberculosis inhibitor project, purified and synthesized samples, set 3 (AID 504684); type: functional
[5] = Vero cell cytotoxicity, dose response, cytotoxicity control for M. tuberculosis growth inhibitor project, Vero cells, purified and synthesized compounds, set 5 (AID 504909); type: functional; conditions: Mycobacterium tuberculosis
[6] = HepG2 cell cytotoxicity, cytotoxicity control, set 4 (AID 504910); type: functional; conditions: Mycobacterium tuberculosis
[7] = THP-1 cell cytotoxicity, dose response, cytotoxicity control, set 3 (AID 504852); type: functional; conditions: Mycobacterium tuberculosis
[8] = microbe, parasite or virus in culture; type: functional; conditions: Mycobacterium tuberculosis
[9] = A Cell Based Secondary Assay to Explore Cytotoxicity in THP-1 Cells of Compounds that Modulate Mycobacterium tuberculosis in Media Containing Glycerol versus Media without Glycerol (2).; type: functional
[10] = A Cell Based Secondary Assay to Explore Cytotoxicity in HepG2 Cells of Compounds that Modulate Mycobacterium tuberculosis in Media Containing Glycerol versus Media without Glycerol (2).; type: functional
[11] = target: Protein kinase C zeta type (Homo sapiens, UniProt Q05513); type: functional;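 note: measured as one member of a broad kinase profiling panel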
[12] = target: Serine/threonine-protein kinase pim-1 (Homo sapiens, UniProt P11309); type: functional
[13] = target: Calcium/calmodulin-dependent protein kinase type 1 (Homo sapiens, UniProt Q14012); type: functional
[14] = target: Protein kinase C gamma type (Homo sapiens, UniProt P05129); type: functional
[15] = target: Serine/threonine-protein kinase MRCK alpha (Homo sapiens, UniProt Q5VT25); type: functional
[16] = target: Serine/threonine-protein kinase PAK 1 (Homo sapiens, UniProt Q13153); type: functional
[17] = target: Protein kinase C delta type (Homo sapiens, UniProt Q05655); type: functional
[18] = target: Tyrosine-protein kinase Lck (Homo sapiens, UniProt P06239); type: functional;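 note: lck was assayed as one member of a kinase panel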
[19] = target: Vascular endothelial growth factor receptor 2 (Homo sapiens, UniProt P35968); type: functional
[20] = target: Proto-oncogene tyrosine-protein kinase Src (Homo sapiens, UniProt P12931); type: functional;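 note: SRC entry within a kinome-wide kinase profiling panel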
[21] = target: Receptor-type tyrosine-protein kinase FLT3 (Homo sapiens, UniProt P36888); type: functional;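 note: FLT3 was tested as one member of a kinome-wide kinase panel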
[22] = target: Vascular endothelial growth factor receptor 3 (Homo sapiens, UniProt P35916); type: functional;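 note: value from a kinome-wide profiling panel, with FLT4 as the panel member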
[23] = target: Tyrosine-protein kinase ABL1 (Homo sapiens, UniProt P00519); type: functional
[24] = target: Tyrosine-protein kinase Lyn (Homo sapiens, UniProt P07948); type: functional;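 note: lyn as one member of a kinase panel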
[25] = target: Macrophage colony-stimulating factor 1 receptor (Homo sapiens, UniProt P07333); type: functional;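 note: value comes from the Navigating the Kinome screening panel, CSF1R member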
[26] = target: Mast/stem cell growth factor receptor Kit (Homo sapiens, UniProt P10721); type: functional;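 note: KIT entry within a kinase panel assay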
[27] = target: Vascular endothelial growth factor receptor 1 (Homo sapiens, UniProt P17948); type: functional;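 note: measured within a kinome-wide profiling panel, FLT1 as the panel member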
[28] = target: Tyrosine-protein kinase Blk (Homo sapiens, UniProt P51451); type: functional;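 note: obtained as one member of a kinome-wide kinase assay panel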
[29] = target: Tyrosine-protein kinase Fyn (Homo sapiens, UniProt P06241); type: functional
[30] = target: T1, Neuropeptides B/W receptor type 1 (Homo sapiens, UniProt P48145); test: human NPBW1 receptor blockade, IC50 – cell-based, fluorescence, dose response, set 5, late-stage follow-up (AID 588566); type: functional
T1 sequence (P48145 whole entry): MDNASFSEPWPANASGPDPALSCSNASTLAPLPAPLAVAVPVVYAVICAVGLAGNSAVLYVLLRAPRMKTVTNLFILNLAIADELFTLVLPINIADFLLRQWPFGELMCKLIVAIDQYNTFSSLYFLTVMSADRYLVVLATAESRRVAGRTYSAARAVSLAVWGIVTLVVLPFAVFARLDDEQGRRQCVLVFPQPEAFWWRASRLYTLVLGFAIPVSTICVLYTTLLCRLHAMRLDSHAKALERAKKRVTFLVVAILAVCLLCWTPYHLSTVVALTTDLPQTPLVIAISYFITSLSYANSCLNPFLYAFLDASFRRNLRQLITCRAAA

[31] = target: Melanin-concentrating hormone receptor 1 (Homo sapiens, UniProt Q99705); test: Late-stage fluorescence-based counterscreen for antagonists of the G-protein coupled receptor 7 (GPR7): cell-based dose response assay to identify antagonists of the melanin-concentrating hormone receptor 1 (MCHR1) Set 5.; type: functional
[32] = target: LIM domain kinase 1 (Homo sapiens, UniProt P53667); test: Navigating the Kinome. Panel member name: LIMK1; type: functional
[33] = target: Dual specificity protein kinase CLK4 (Homo sapiens, UniProt Q9HAZ1); type: functional
[34] = target: Dual specificity tyrosine-phosphorylation-regulated kinase 1B (Homo sapiens, UniProt Q9Y463); test: Navigating the Kinome. Panel member name: DYRK1B; type: functional
[35] = target: Casein kinase I isoform alpha (Homo sapiens, UniProt P48729); type: functional
[36] = target: Activated CDC42 kinase 1 (Homo sapiens, UniProt Q07912); test: Navigating the Kinome. Panel member name: ACK1; type: functional
[37] = target: Death-associated protein kinase 3 (Homo sapiens, UniProt O43293); type: functional;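 note: measured as one member of a kinome-wide profiling panel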
[38] = target: Rho-associated protein kinase 1 (Homo sapiens, UniProt Q13464); type: functional;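 note: measured within a broad kinome-wide panel profiling many kinases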
[39] = tested on: CHO-K1; test: Counterscreen for antagonists of the orexin 1 receptor (OX1R; HCRTR1): Homogeneous time resolved fluorescence (HTRF)-based cell-based dose response assay to identify antagonists of the parental CHO-K1 cell line. [Related pubchem assays (depositor defined):AID434989, AID435008, AID463079, AID485270, AID492963, AID492964, AID492965, AID493232, AID504699, AID504701]; type: functional; conditions: Cricetulus griseus;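 note: potency for inhibition of ATP-stimulated IP1 production as antagonists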
[40] = target: T2, Orexin receptor type 2 (Homo sapiens, UniProt O43614); test: Counterscreen assay for antagonists of the orexin 1 receptor (OX1R; HCRTR1): Homogeneous Time Resolved Fluorescence (HTRF)-based cell-based dose response assay for antagonists of the orexin 2 receptor (OX2R; HCRTR2), run by assay provider.; type: functional
[41] = target: T3, Orexin/Hypocretin receptor type 1 (Homo sapiens, UniProt O43613); test: Fluorescence-based cell-based high throughput dose response assay for antagonists of the orexin 1 receptor (OX1R; HCRTR1). [Related pubchem assays (depositor defined):AID434989, AID435008, AID463079, AID485270, AID492963, AID492964, AID492965, AID493232, AID504717, AID504718]; type: functional
[42] = target: T2, Orexin receptor type 2; test: Counterscreen assay for antagonists of the orexin 1 receptor (OX1R; HCRTR1): Fluorescence-based cell-based dose response assay for antagonists of the orexin 2 receptor (OX2R; HCRTR2), run by assay provider.; type: functional
[43] = target: T3, Orexin/Hypocretin receptor type 1; test: Homogeneous Time Resolved Fluorescence (HTRF)-based cell-based high throughput dose response assay for antagonists of the orexin 1 receptor (OX1R; HCRTR1). [Related pubchem assays (depositor defined):AID434989, AID435008, AID463079, AID485270, AID492963, AID492964, AID492965, AID493232, AID504717, AID504718]; type: functional
[44] = Counterscreen for antagonists of the orexin 1 receptor (OX1R; HCRTR1): Fluorescence-based cell-based high throughput dose response assay to identify antagonists of the parental CHO cell line. [Related pubchem assays (depositor defined):AID434989, AID435008, AID463079, AID485270, AID492963, AID492964, AID492965, AID493232, AID504699, AID504701]; type: functional
[45] = target: T4, Heat shock factor protein 1 (Mus musculus, UniProt P38532); test: decrease of HSF1-responsive luciferase luminescence – cell-based, NIH3T3, dose retest, confirmation (AID 2382); type: functional;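 note: NIH3T3 fibroblasts with HSF1-driven luciferase reporter stressed by proteasome inhibitor MG132; luminescence from HSF1-driven luciferase expression after 8 hours of MG132 stress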
T4 sequence (P38532 whole entry): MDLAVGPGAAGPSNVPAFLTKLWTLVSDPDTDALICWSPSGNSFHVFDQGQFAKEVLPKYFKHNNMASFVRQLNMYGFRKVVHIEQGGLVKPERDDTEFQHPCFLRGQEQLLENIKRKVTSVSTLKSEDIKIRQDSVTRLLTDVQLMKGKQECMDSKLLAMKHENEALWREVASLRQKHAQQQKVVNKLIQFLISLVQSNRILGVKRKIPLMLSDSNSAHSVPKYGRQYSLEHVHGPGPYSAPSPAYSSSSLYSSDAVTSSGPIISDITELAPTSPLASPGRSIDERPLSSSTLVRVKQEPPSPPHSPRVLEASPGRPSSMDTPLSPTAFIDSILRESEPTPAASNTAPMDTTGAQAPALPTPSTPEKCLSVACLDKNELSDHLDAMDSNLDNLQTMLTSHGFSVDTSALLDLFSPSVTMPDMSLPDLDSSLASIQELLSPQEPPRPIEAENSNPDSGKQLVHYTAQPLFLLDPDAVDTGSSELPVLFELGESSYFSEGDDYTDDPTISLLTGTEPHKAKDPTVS

[46] = HIV-1 AD8 envelope cell-cell fusion blockers – cherry-pick, dose response (AID 652062); type: functional, cell-based;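 note: luciferase signal from cell-cell fusion driven by HIV-1 clade B AD8 Env; potency is for inhibitors of fusion seen as a drop in luminescence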
[47] = target: Latent membrane protein 1 (Human herpesvirus 4 (strain B95-8), UniProt P03230); test: LMP1 TES1 pathway selectivity over dsRED control – imaging, HEK293T, dual-color eGFP/dsRED, cherry-picks, selectivity assay for LMP1 NF-kB inhibitor project, dose response (AID 588398); type: functional, cell-based
[48] = tested on: HEK293; test: EBV LMP1 TES2 canonical NF-kB signalling blockers – cell-based, HEK293, luciferase, cherry-pick, dose response (AID 588343); type: functional; conditions: Homo sapiens
[49] = blockers of HIV-1 envelope-mediated cell-cell fusion – cherry-pick, dose response (AID 652057); type: functional, cell-based
[50] = target: Luciferin 4-monooxygenase (Photuris pensylvanica, UniProt Q27757); test: inhibition of Cell Titer Glo luciferase signal – biochemical, luminescence, cherry-picks, counter-screen for HSF-1 reporter inhibitor project, dose response (AID 588847)
[51] = target: Dual specificity tyrosine-phosphorylation-regulated kinase 1A (Rattus norvegicus, UniProt Q63470); type: biochemical, Homo sapiens
[52] = off-target signal loss in HeLa-CEM21 co-culture – HeLa F-luc CTL cells, cherry-picked, counter-screen for HIV-1 Env fusion inhibitor project, dose response (AID 652040); type: functional, cell-based;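 note: potency for signal decrease marking cytotoxic or nonspecific inhibition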

T2 sequence (O43614 whole entry): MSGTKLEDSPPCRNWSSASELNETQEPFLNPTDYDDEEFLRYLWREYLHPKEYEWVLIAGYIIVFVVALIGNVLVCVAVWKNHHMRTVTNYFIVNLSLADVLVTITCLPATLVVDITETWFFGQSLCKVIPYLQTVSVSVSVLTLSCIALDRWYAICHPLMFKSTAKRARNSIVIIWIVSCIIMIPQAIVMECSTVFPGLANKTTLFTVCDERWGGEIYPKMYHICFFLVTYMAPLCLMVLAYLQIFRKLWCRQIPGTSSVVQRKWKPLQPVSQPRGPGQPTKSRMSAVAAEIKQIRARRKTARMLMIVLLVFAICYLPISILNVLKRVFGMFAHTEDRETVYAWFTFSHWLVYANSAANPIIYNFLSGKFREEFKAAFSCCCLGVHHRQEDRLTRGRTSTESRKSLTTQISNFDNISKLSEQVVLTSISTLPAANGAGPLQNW
T3 sequence (O43613 whole entry): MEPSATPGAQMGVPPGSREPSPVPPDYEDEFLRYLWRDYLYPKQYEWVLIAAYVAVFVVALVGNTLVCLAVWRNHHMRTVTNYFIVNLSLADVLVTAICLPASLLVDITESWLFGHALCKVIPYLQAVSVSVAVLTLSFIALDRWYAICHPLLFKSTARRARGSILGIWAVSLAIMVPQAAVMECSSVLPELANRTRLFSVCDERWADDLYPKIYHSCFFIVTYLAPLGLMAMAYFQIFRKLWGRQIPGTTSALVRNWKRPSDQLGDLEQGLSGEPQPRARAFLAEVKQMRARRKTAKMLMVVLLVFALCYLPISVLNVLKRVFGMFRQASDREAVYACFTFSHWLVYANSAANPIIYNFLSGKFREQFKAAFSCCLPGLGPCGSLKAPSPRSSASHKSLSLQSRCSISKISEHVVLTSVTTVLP
Serine/threonine-protein kinase MRCK alpha, sequence (Q5VT25 whole entry): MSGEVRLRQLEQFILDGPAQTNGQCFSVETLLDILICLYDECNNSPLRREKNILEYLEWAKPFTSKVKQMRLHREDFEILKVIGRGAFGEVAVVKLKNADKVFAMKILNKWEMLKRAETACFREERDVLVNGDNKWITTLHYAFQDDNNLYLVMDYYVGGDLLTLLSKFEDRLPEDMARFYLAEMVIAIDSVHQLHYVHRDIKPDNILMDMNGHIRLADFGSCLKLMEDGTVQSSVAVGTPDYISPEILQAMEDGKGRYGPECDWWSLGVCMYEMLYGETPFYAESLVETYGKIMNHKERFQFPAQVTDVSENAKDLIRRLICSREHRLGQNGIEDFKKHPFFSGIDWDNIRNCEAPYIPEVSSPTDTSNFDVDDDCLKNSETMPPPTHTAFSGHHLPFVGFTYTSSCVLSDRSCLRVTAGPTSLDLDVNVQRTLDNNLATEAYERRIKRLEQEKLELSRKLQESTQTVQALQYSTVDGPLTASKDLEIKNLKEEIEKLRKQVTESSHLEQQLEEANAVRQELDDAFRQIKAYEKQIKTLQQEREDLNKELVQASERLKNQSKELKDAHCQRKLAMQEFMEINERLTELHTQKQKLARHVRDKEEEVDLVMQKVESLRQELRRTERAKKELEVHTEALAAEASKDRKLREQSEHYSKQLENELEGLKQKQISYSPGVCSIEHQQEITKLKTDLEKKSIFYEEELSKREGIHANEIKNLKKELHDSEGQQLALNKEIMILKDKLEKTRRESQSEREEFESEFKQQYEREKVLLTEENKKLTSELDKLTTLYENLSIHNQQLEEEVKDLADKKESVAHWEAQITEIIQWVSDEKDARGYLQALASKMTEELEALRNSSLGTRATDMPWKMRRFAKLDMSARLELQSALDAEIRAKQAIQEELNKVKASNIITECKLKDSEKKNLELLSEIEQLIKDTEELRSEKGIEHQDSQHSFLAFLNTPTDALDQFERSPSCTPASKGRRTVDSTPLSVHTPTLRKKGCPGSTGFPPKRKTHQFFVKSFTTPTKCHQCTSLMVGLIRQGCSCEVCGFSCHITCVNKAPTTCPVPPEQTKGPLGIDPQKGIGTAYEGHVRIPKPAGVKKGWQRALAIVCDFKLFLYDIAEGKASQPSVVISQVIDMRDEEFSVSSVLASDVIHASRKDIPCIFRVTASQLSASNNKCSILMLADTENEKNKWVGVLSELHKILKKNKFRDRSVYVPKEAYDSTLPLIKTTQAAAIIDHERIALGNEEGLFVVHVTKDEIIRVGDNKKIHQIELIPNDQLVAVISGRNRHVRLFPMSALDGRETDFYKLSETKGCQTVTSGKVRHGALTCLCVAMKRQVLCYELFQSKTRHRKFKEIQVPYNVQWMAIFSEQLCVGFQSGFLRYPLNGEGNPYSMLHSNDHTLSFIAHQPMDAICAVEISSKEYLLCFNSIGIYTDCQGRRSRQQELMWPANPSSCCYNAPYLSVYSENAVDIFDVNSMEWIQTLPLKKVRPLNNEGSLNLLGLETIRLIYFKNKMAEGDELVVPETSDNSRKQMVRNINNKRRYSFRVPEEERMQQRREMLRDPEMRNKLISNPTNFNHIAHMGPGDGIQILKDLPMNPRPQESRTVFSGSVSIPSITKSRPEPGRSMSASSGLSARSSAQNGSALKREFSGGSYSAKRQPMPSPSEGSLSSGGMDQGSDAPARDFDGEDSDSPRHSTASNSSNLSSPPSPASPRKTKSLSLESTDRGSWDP
Tyrosine-protein kinase Lck, sequence (P06239 whole entry): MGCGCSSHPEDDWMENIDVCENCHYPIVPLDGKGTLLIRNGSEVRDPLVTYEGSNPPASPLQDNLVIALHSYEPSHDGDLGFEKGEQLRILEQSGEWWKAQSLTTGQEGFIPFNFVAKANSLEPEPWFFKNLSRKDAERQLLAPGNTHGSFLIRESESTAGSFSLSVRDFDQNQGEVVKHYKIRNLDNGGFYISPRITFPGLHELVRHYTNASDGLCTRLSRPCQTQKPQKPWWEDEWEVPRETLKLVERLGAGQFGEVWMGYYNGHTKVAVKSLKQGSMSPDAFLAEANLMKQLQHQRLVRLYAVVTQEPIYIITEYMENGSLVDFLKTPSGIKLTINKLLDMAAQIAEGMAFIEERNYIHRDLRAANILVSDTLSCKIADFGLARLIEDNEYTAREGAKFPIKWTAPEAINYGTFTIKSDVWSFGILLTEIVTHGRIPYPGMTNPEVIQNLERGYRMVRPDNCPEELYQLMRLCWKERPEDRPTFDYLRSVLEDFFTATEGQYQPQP
Macrophage colony-stimulating factor 1 receptor, sequence (P07333 whole entry): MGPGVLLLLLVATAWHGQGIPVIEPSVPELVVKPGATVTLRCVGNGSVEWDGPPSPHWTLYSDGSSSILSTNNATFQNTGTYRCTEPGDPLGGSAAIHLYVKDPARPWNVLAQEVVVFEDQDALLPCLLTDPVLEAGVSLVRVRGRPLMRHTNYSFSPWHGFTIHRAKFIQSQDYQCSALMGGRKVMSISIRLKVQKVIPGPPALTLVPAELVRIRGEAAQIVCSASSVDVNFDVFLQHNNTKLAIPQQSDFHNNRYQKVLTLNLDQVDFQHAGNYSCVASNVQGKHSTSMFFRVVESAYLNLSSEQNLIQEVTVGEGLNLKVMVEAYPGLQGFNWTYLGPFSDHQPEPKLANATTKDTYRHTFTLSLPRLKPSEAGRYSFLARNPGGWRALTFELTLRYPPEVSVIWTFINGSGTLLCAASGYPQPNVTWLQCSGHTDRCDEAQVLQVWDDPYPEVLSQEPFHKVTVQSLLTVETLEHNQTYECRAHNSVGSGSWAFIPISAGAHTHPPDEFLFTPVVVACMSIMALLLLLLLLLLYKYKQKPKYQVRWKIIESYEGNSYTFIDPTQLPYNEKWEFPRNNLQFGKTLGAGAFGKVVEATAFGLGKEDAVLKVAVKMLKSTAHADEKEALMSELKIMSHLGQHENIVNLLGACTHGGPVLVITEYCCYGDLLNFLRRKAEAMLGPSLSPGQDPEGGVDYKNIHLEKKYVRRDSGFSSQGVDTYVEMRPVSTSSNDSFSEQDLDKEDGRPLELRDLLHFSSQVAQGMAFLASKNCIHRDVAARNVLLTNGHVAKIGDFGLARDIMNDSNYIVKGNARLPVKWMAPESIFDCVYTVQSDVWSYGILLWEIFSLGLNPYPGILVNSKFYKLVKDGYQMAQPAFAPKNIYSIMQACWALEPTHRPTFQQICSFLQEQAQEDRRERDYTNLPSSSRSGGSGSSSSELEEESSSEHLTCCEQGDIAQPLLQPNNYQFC
Tyrosine-protein kinase Blk, sequence (P51451 whole entry): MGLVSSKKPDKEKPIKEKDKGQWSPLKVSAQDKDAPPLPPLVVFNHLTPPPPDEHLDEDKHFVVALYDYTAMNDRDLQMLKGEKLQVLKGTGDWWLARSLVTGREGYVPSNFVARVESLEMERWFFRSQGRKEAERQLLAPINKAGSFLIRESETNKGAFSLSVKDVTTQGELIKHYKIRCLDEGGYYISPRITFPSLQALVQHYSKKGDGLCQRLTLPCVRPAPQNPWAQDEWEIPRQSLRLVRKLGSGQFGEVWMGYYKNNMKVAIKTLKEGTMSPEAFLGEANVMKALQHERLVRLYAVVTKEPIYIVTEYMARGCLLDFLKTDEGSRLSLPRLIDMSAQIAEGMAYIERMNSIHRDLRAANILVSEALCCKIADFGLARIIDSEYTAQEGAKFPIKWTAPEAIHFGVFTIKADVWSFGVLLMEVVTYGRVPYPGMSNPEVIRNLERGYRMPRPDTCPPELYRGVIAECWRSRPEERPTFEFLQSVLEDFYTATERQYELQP
Death-associated protein kinase 3, sequence (O43293 whole entry): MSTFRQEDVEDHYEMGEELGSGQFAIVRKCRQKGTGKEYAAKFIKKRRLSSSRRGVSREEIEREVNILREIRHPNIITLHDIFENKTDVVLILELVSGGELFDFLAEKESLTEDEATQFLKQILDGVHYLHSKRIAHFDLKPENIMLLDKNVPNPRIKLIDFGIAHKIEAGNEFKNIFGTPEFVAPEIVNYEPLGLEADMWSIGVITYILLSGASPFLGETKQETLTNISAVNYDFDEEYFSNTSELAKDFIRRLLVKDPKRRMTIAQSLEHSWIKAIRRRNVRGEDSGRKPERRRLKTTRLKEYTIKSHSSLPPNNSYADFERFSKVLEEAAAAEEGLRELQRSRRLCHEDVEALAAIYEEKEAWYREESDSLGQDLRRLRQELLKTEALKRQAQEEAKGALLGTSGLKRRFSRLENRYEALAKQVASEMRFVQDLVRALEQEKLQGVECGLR

CCOc1ccc(-c2cc(C)[n+](CCc3ccc(OC)c(OC)c3)c(-c3ccc(OCC)cc3)c2)cc1.[O-][Cl+3]([O-])([O-])[O-]
CC50 [1]: 21 µM (active) | CC50 [2]: 13.1 µM (active) | CC50 [3]: 1.3 µM (active) | CC50 [4]: 18.2 µM (active) | CC50 [5]: 19.7 µM (active) | CC50 [6]: 11.9 µM (active) | CC50 [7]: 1.7 µM (active) | CC50 [8]: > 40 µM (active) | CC50 [9]: 2.28 µM (active) | CC50 [10]: 9.14 µM (active)

CC(C)c1ccc2c(c1)c(SC(C)(C)C)c(CC(C)(C)CNCCCO)n2Cc1ccc(Cl)cc1
Ki [11]: 7.94 µM (active) | Ki [12]: 5.01 µM (active) | Ki [13]: 7.94 µM (active) | Ki [14]: 3.98 µM (active) | Ki [15]: 6.31 µM (active) | Ki [16]: 2 µM (active) | Ki [17]: 2.51 µM (active)

Cc1ccc(F)c(NC(=O)Nc2ccc(-c3cccc4[nH]nc(N)c34)c(F)c2)c1
Ki [18]: 0.501 µM (active) | Ki [19]: 0.0126 µM (active) | Ki [20]: 0.501 µM (active) | Ki [21]: 0.00316 µM (active) | Ki [22]: 0.00398 µM (active) | Ki [23]: > 0.631 µM (inactive) | Ki [24]: 0.316 µM (active) | Ki [25]: 0.00316 µM (active) | Ki [26]: 0.002 µM (active) | Ki [27]: 0.001 µM (active) | Ki [28]: 0.251 µM (active) | Ki [29]: 0.158 µM (active)

O=c1c(Oc2ccc(Cl)c(Cl)c2)c(Cl)cnn1Cc1cccc2ccccc12
IC50 [30]: > 20 µM (inactive) | IC50 [31]: > 20 µM (inactive)

Cn1c(N)nc2sc(C(N)=O)cc21
Ki [32]: 79.4 µM (active) | Ki [33]: 25.1 µM (active) | Ki [34]: 79.4 µM (active) | Ki [35]: 12.6 µM (active) | Ki [36]: 79.4 µM (active) | Ki [37]: 10 µM (active) | Ki [38]: 39.8 µM (active)

CNc1oc(-c2cccc3ccccc23)nc1C#N
IC50 [39]: > 66.2 µM (inactive) | IC50 [40]: > 50 µM (inactive) | IC50 [41]: 3.48 µM (active) | IC50 [42]: > 88.8 µM (inactive) | IC50 [43]: 0.887 µM (active) | IC50 [44]: > 49.7 µM (inactive)

CC1=C(C(=O)OCc2ccc3c(c2)OCO3)C(c2ccc(F)cc2)NC(=O)N1 (configuration not stated)
EC50 [45]: < 0.16 µM (active) | AC50 [46]: 1.47 µM (active) | AC50 [47]: 9.67 µM (active) | AC50 [48]: 3.36 µM (active) | AC50 [49]: 0.284 µM (active) | AC50 [50]: > 52 µM (inactive) | AC50 [51]: 1.85 µM (active) | AC50 [52]: 0.576 µM (active)
